{
  "source": "patent US20240108618A1",
  "about": "“KRAS G12C INHIBITOR DOSING REGIMENS” (Eli Lilly and Company, priority 2022, published 2024)",
  "key": {"MiaPaca-2": {"test_system": "MiaPaca-2", "assay": "MiaPaca-2 (pancreas) xenograft model", "assay_type": "in vivo, mouse", "description": "For xenograft models of H1373, HCC44, MiaPaca-2, SW1463, SW837, KYSE-410 and UM-UC-3, typically 5-10×10^6 cells in a 1:1 matrigel mix (0.2 mL total volume) are implanted by subcutaneous injection in hind leg of nude mice. […] Treatment is initiated with oral administration (gavage) of testing compound or vehicle (20% captisol, 25 mM phosphate, pH2.0) in 0.2 mL volume when tumor size reaches approximately 200-300 mg. Tumor growth and body weight are monitored over time to evaluate efficacy and signs of toxicity. For EL3187 PDX model, frozen vials containing tumor fragments are thawed at 37° C. in a water bath. The tumor fragments are transferred to 50 mL Falcon tube and the ice cold DMEM medium is slowly added into the tube to a total volume of 35 mL. Then the tumor fragments are centrifuged at 130×g for 2 minutes at 4° C. and supernatant is aspirated. This washing step is repeated twice and the tumor fragments are resuspended in 10 mL DMEM for implantation into athymic nude-Foxn1nu mice (Envigo RMS, Inc., Mount Comfort, Indiana). Once tumor volumes reach 800 to 1000 mm^3, animals are sacrificed and tumors are harvested using aseptic technique. Fresh tumors are cut into 10 to 15 mm^3 fragments and placed into cold Gibco hibernate medium. The tumor fragments are subcutaneously implanted into animals with a 10 g trochar needle. When tumor size reaches 200 to 300 mm^3, the animals are randomized for compound treatment.\nAmong models listed in Table 2, EL3187 is a patient-derived xenograft (PDX) model, and all other are tumor xenograft models."}, "[1]": {"assay": "NCT04956640 Phase 1a clinical pharmacokinetics, monotherapy", "excerpt": "(§1) NCT04956640 includes Phase 1a dose escalation (Part A of NCT04956640, see Table 3) followed by a Phase 1b dose expansion (Parts B to E of NCT04956640, see Table 4). […] Phase 1b dose expansion will include 12 cohorts (See Table 4) to further evaluate safety and clinical activity."}, "[2]": {"assay": "NCT04956640 Phase 1a monotherapy safety: treatment-emergent adverse events", "details": "in vivo", "excerpt": "A “DLT” is defined as any of the treatment-emergent adverse event (TEAEs), as defined by the National Cancer Institute's Common Terminology Criteria for Adverse Events, version 5.0 (NCI CTCAE v5.0), deemed clinically significant and occurring during the first 21 days of study drug per dose level per patient, unless the adverse event (AE) can be clearly related to the patient's underlying disease, other medical condition, or concomitant medications including any AEs attributed by the Investigator to the combination agent alone. A TEAE is defined as an AE that starts or worsens on or after the date of the first dose of study drug (for example on Study Day 1) through 28 days (+14 days window) after the date of the last dose of study drug or the first date starting new anticancer therapy, whichever is earlier. A Serious TEAE is defined as an TEAE that is grade 3 or higher based on severity grade assignment as defined by the National Cancer Institute's Common Terminology Criteria for Adverse Events, version 5.0 (NCI CTCAE v5.0). A Fatal TEAE is defined as an TEAE that is grade 5 based on severity grade assignment as defined by the National Cancer Institute's Common Terminology Criteria for Adverse Events, version 5.0 (NCI CTCAE v5.0). […]"}, "[3]": {"excerpt": "A “DLT” is defined as any of the treatment-emergent adverse event (TEAEs), as defined by the National Cancer Institute's Common Terminology Criteria for Adverse Events, version 5.0 (NCI CTCAE v5.0), deemed clinically significant and occurring during the first 21 days of study drug per dose level per patient, unless the adverse event (AE) can be clearly related to the patient's underlying disease, other medical condition, or concomitant medications including any AEs attributed by the Investigator to the combination agent alone. A TEAE is defined as an AE that starts or worsens on or after the date of the first dose of study drug (for example on Study Day 1) through 28 days (+14 days window) after the date of the last dose of study drug or the first date starting new anticancer therapy, whichever is earlier. A Serious TEAE is defined as an TEAE that is grade 3 or higher based on severity grade assignment as defined by the National Cancer Institute's Common Terminology Criteria for Adverse Events, version 5.0 (NCI CTCAE v5.0). A Fatal TEAE is defined as an TEAE that is grade 5 based on severity grade assignment as defined by the National Cancer Institute's Common Terminology Criteria for Adverse Events, version 5.0 (NCI CTCAE v5.0).\nas §1"}},
  "note": "Marks after values point to notes of the source that are not given here.",
  "data": [
    {"smiles": "C=CC(=O)N1CCN2C(=O)c3cc(F)c(-c4ccc(F)c5sc(N)c(C#N)c45)c(Cl)c3OCC[C@H]2C1", "note": "(single isomer, unassigned) [Formula I]", "values": [
      {"measurement": "tumor growth inhibition (%) or regression (− %)", "setting": "MiaPaca-2; 5 mg/kg BID x28", "value": "−36.1", "unit": "%"},
      {"measurement": "tumor growth inhibition (%) or regression (− %)", "setting": "MiaPaca-2; 5 mg/kg QD x28", "value": 81.7, "unit": "%"},
      {"measurement": "tumor growth inhibition (%) or regression (− %)", "setting": "MiaPaca-2; 10 mg/kg BID x28", "value": "−45.2", "unit": "%"},
      {"measurement": "tumor growth inhibition (%) or regression (− %)", "setting": "MiaPaca-2; 10 mg/kg QD x28", "value": "−27", "unit": "%"},
      {"measurement": "tumor growth inhibition (%) or regression (− %)", "setting": "MiaPaca-2; 30 mg/kg BID x28", "value": "−43.6", "unit": "%"},
      {"measurement": "tumor growth inhibition (%) or regression (− %)", "setting": "MiaPaca-2; 30 mg/kg QD x28", "value": "−42", "unit": "%"},
      {"measurement": "AUC", "setting": "[1]; 50 mg BID", "value": "634 (53%) ng.h/mL"},
      {"measurement": "Cmax", "setting": "[1]; 50 mg BID", "value": "144 (45%) ng/ml"},
      {"measurement": "Ctrough-Cmin", "setting": "[1]; 50 mg BID", "value": "23.8 (90%)^c ng/mL"},
      {"measurement": "t½", "setting": "[1]; 50 mg BID", "value": "3.03 (41%)^c h"},
      {"measurement": "AUC", "setting": "[1]; 100 mg BID", "value": "1475 (77%) ng.h/mL"},
      {"measurement": "Cmax", "setting": "[1]; 100 mg BID", "value": "305 (75%) ng/ml"},
      {"measurement": "Ctrough-Cmin", "setting": "[1]; 100 mg BID", "value": "44.9 (73%) ng/mL"},
      {"measurement": "Ctrough-Cmin compared with TEC90", "setting": "[1]; 100 mg BID", "value": "> 25", "unit": "ng/mL"},
      {"measurement": "t½", "setting": "[1]; 100 mg BID", "value": "3.01 (33%)^b h"},
      {"measurement": "AUC", "setting": "[1]; 150 mg BID", "value": "1795 (47%) ng.h/mL"},
      {"measurement": "Cmax", "setting": "[1]; 150 mg BID", "value": "368 (51%) ng/ml"},
      {"measurement": "Ctrough-Cmin", "setting": "[1]; 150 mg BID", "value": "54.5 (60%) ng/mL"},
      {"measurement": "Ctrough-Cmin compared with TEC90", "setting": "[1]; 150 mg BID", "value": "> 25", "unit": "ng/mL"},
      {"measurement": "t½", "setting": "[1]; 150 mg BID", "value": "3.41 (32%) h"},
      {"measurement": "AUC", "setting": "[1]; 200 mg BID", "value": "1372 (59%) ng.h/mL"},
      {"measurement": "Cmax", "setting": "[1]; 200 mg BID", "value": "325 (61%) ng/ml"},
      {"measurement": "Ctrough-Cmin", "setting": "[1]; 200 mg BID", "value": "40.3 (73%) ng/mL"},
      {"measurement": "Ctrough-Cmin compared with TEC90", "setting": "[1]; 200 mg BID", "value": "> 25", "unit": "ng/mL"},
      {"measurement": "t½", "setting": "[1]; 200 mg BID", "value": "2.35 (58%) h"},
      {"measurement": "tolerability", "setting": "[2]", "value": "well tolerated"},
      {"measurement": "discontinuation due to TRAE", "setting": "[3]; 50 mg BID", "value": "one"},
      {"measurement": "rate of immune-related AEs, including hepatoxicity", "setting": "[3]; 50 mg BID and 100 mg BID", "value": "low rate of immune-related AEs"},
      {"measurement": "dose reductions", "setting": "[3]; 50 mg and 100 mg BID", "value": "no dose reductions"}
    ]}
  ]
}
